Measurements published in patent publication US10202351B2, “Pyrazolyl derivatives as pest control agents” (BAYER ANIMAL HEALTH GMBH, priority 2015, dated 2019).

Columns and labels:
Type in all cases: in vivo
Spodoptera frugiperda = Spodoptera frugiperda spray test; details: application rate 100 g/ha, caterpillars on maize leaf discs, after 7 days
Experimental: (§1) Solvent: 78.0 parts by weight of acetone • • 1.5 parts by weight of dimethylformamide Emulsifier: alkylaryl polyglycol ether […] To produce further test concentrations, the formulation is diluted with emulsifier-containing water. Leaf discs of maize (Zea mays) are sprayed with an active compound formulation of the desired concentration and, after drying, populated with caterpillars of the armyworm (Spodoptera frugiperda).

Lucilia cuprina = Lucilia cuprina test; details: application rate 100 ppm, L1 larvae, kill after 2 days
Experimental: (§2) Solvent: dimethyl sulfoxide
(§3) To produce a suitable preparation of active compound, 10 mg of active compound are mixed with 0.5 ml of dimethyl sulfoxide, and the concentrate is diluted with water to the desired concentration.
About 20 L1 larvae of the Australian sheep blowfly (Lucilia cuprina) are transferred into a test vessel containing minced horsemeat and the active compound formulation of the desired concentration.
After 2 days, the kill in % is determined. 100% means that all the larvae have been killed; 0% means that no larvae have been killed.

Tetranychus urticae = Tetranychus urticae spray test, OP-resistant; details: application rate 100 g/ha, all stages on bean leaf discs, after 6 days
Experimental: Solvent: 78.0 parts by weight of acetone • • 1.5 parts by weight of dimethylformamide Emulsifier: alkylaryl polyglycol ether […] To produce further test concentrations, the formulation is diluted with emulsifier-containing water. Discs of bean leaves (Phaseolus vulgaris) infested with all stages of the greenhouse red spider mite (Tetranychus urticae) are sprayed with an active ingredient formulation of the desired concentration.

Ctenocephalides felis = Ctenocephalides felis oral test; details: application rate 100 ppm in citrated cattle blood, kill after 2 days
From the text: Solvent: dimethyl sulfoxide […] Dilution with citrated cattle blood gives the desired concentration. About 20 unfed adult cat fleas (Ctenocephalides felis) are placed into a chamber which is closed at the top and bottom with gauze. A metal cylinder whose bottom end is closed with parafilm is placed onto the chamber. The cylinder contains the blood/active ingredient formulation, which can be imbibed by the fleas through the parafilm membrane.

Phaedon cochleariae = Phaedon cochleariae spray test; details: application rate 100 g/ha, larvae on Chinese cabbage leaf discs, after 7 days
Experimental: as §1, with “Discs” for “Leaf discs”, “Chinese cabbage leaves (Brassica pekinensis)” for “maize (Zea mays)”, “ingredient” for “compound”, “larvae” for “caterpillars”, “mustard beetle (Phaedon cochleariae).” for “armyworm (Spodoptera frugiperda).”

Musca domestica = Musca domestica test; details: application rate 100 ppm, adult houseflies, kill after 2 days
Experimental: as §2, §3
Vessels containing a sponge treated with sugar solution and the active ingredient formulation of the desired concentration are populated with 10 adult houseflies (Musca domestica)).
After 2 days, the kill in % is determined. 100% means that all of the flies have been killed; 0% means that none of the flies have been killed.

Boophilus microplus = Boophilus microplus injection test; details: application rate 20 μg/animal, after 7 days, laying of fertile eggs
Experimental: Solvent: dimethyl sulfoxide […] The animals are transferred into dishes and kept in a climate-controlled room. Efficacy is assessed after 7 days by laying of fertile eggs. Eggs which are not visibly fertile are stored in a climate-controlled cabinet until the larvae hatch after about 42 days.

Row | SMILES | efficacy (Spodoptera frugiperda) | efficacy (Lucilia cuprina) | efficacy (Tetranychus urticae) | efficacy (Ctenocephalides felis) | efficacy (Phaedon cochleariae) | efficacy (Musca domestica) | efficacy (Boophilus microplus)
1 | Cc1cc(C(F)(C(F)(F)F)C(F)(F)F)cc(C(F)(F)F)c1-n1cc(-c2cc(NC(=O)c3ccnc(F)c3)ccc2F)cn1 [Example 2-1] | 100% | 98% | 90% | 95% | 100% | 100% | 100%
2 | Cc1cc(C(F)(C(F)(F)F)C(F)(F)F)cc(C(F)(F)F)c1-n1cc(-c2cc(NC(=O)c3ccncc3)ccc2F)cn1 [Example 2-2] | 100% | 98% | 90% | 95% | 100% | 90% | 100%
3 | COc1cc(C(=O)Nc2ccc(F)c(-c3cnn(-c4c(C)cc(C(F)(C(F)(F)F)C(F)(F)F)cc4C(F)(F)F)c3)c2)ccc1F [Example 2-5] | – | – | – | – | – | – | 100%
4 | COc1ccc(C(=O)Nc2ccc(F)c(-c3cnn(-c4c(C)cc(C(F)(C(F)(F)F)C(F)(F)F)cc4C(F)(F)F)c3)c2)cc1F [Example 2-6] | – | – | – | – | – | – | 80%
5 | COc1cc(C(=O)Nc2ccc(F)c(-c3cnn(-c4c(C)cc(C(F)(C(F)(F)F)C(F)(F)F)cc4C(F)(F)F)c3)c2)ccc1C#N [Example 2-8] | – | 90% | – | – | 83% | – | 100%
6 | Cc1cc(C(F)(C(F)(F)F)C(F)(F)F)cc(C(F)(F)F)c1-n1cc(-c2cc(NC(=O)c3ccsc3)ccc2F)cn1 [Example 2-9] | – | 100% | – | 95% | – | – | 100%
7 | Cc1cc(C(F)(C(F)(F)F)C(F)(F)F)cc(C(F)(F)F)c1-n1cc(-c2cc(NC(=O)c3ccccc3)ccc2F)cn1 [Example 2-10] | – | – | – | – | – | – | 100%
8 | Cc1cc(C(F)(C(F)(F)F)C(F)(F)F)cc(C(F)(F)F)c1-n1cc(-c2cc(NC(=O)c3cnco3)ccc2F)cn1 [Example 2-11] | 100% | 100% | – | 100% | 100% | – | 100%
9 | Cc1ncc(-c2cnn(-c3c(Cl)cc(C(F)(C(F)(F)F)C(F)(F)F)cc3Cl)c2)cc1NC(=O)c1ccncc1 [Example 18] | 100% | – | – | – | 83% | – | –
10 | Cc1cc(C(F)(C(F)(F)F)C(F)(F)F)cc(C)c1-n1cc(-c2ccc(N(C)C)c(NC(=O)c3ccc(F)cc3)c2)cn1 [Example 21] | 100% | – | – | 100% | – | – | 100%
11 | Cc1cc(C(F)(C(F)(F)F)C(F)(F)F)cc(C(F)(F)F)c1-n1cc(-c2ccc(F)c(NC(=O)c3cccs3)c2F)cn1 [Example 26] | 100% | 100% | – | 100% | 100% | – | 100%
12 | COc1cc(C(=O)Nc2c(F)ccc(-c3cnn(-c4c(C)cc(C(F)(C(F)(F)F)C(F)(F)F)cc4C(F)(F)F)c3)c2F)ccc1F [Example 27] | – | 90% | – | 100% | – | – | 100%
13 | COc1cc(C(=O)Nc2cc(-c3cnn(-c4c(C)cc(C(F)(C(F)(F)F)C(F)(F)F)cc4C(F)(F)F)c3)ccc2F)ccc1F [Example 28] | – | – | – | – | 100% | – | –
14 | CCOc1cc(C(=O)Nc2cc(-c3cnn(-c4c(C)cc(C(F)(C(F)(F)F)C(F)(F)F)cc4C(F)(F)F)c3)ccc2F)ccc1F [Example 29] | – | – | – | 80% | – | – | 100%
15 | COc1cc(C(=O)Nc2cc(-c3cnn(-c4c(C)cc(C(F)(C(F)(F)F)C(F)(F)F)cc4C(F)(F)F)c3)ccc2F)ccc1C#N [Example 35] | 100% | – | – | – | 100% | – | –
16 | Cc1cc(C(F)(C(F)(F)F)C(F)(F)F)cc(C(F)(F)F)c1-n1cc(-c2ccc(N(C)C)c(NC(=O)C3(C)CC3)c2)cn1 [Example 36] | 100% | 100% | – | 100% | 100% | – | 100%

Row | SMILES | efficacy (Spodoptera frugiperda) | efficacy (Lucilia cuprina) | efficacy (Tetranychus urticae) | efficacy (Ctenocephalides felis) | efficacy (Phaedon cochleariae) | efficacy (Musca domestica) | efficacy (Boophilus microplus)
17 | Cc1cc(C(F)(C(F)(F)F)C(F)(F)F)cc(C(F)(F)F)c1-n1cc(-c2ccc(N(C)C)c(NC(=O)c3ccsc3)c2)cn1 [Example 37] | 100% | 100% | – | 100% | 100% | – | 100%
18 | Cc1cc(C(F)(C(F)(F)F)C(F)(F)F)cc(C(F)(F)F)c1-n1cc(-c2ccc(F)c(N(C)C(=O)c3ccc(F)nc3)c2F)cn1 [Example 41] | 83% | 100% | – | 100% | 100% | 100% | 100%
19 | COc1cc(C(=O)Nc2cc(-c3cnn(-c4c(C)cc(C(F)(C(F)(F)F)C(F)(F)F)cc4C(F)(F)F)c3)ccc2F)ccc1C [Example 47] | – | – | – | 80% | – | – | 100%
20 | Cc1cc(C(F)(C(F)(F)F)C(F)(F)F)cc(C(F)(F)F)c1-n1cc(-c2ccc(F)c(N(C)C(=O)c3ccc(F)nc3)c2)cn1 [Example 48] | 100% | 100% | – | 100% | 100% | 100% | 100%
21 | Cc1cc(C(F)(C(F)(F)F)C(F)(F)F)cc(C(F)(F)F)c1-n1cc(-c2ccc(F)c(NC(=O)c3ccc(Cl)nc3)c2)cn1 [Example 49] | 100% | 100% | – | 100% | 100% | 100% | –
22 | Cc1ccc(C(=O)Nc2cc(-c3cnn(-c4c(C)cc(C(F)(C(F)(F)F)C(F)(F)F)cc4C(F)(F)F)c3)ccc2F)cc1C [Example 52] | – | – | – | – | – | 100% | 100%
23 | Cc1cc(C(=O)Nc2cc(-c3cnn(-c4c(C)cc(C(F)(C(F)(F)F)C(F)(F)F)cc4C(F)(F)F)c3)ccc2F)ccc1F [Example 53] | – | – | – | 100% | – | 100% | 100%
24 | COc1ccc(C(=O)Nc2cc(-c3cnn(-c4c(C)cc(C(F)(C(F)(F)F)C(F)(F)F)cc4C(F)(F)F)c3)ccc2F)cc1F [Example 55] | – | 80% | – | 100% | 100% | – | 100%
25 | Cc1cc(C(F)(C(F)(F)F)C(F)(F)F)cc(C(F)(F)F)c1-n1cc(-c2ccc(F)c(NC(=O)c3ccc(Cl)c(F)c3)c2)cn1 [Example 56] | – | 100% | – | 100% | – | – | 100%
26 | Cc1cc(C(F)(C(F)(F)F)C(F)(F)F)cc(C(F)(F)F)c1-n1cc(-c2cccc(NC(=O)c3ccc(Cl)nc3)c2F)cn1 [Example 70] | 100% | 100% | – | 100% | 100% | 100% | 100%
27 | COc1cc(C(=O)Nc2cccc(-c3cnn(-c4c(C)cc(C(F)(C(F)(F)F)C(F)(F)F)cc4C(F)(F)F)c3)c2F)ccc1F [Example 71] | 100% | – | – | 100% | 100% | – | 100%
28 | COc1ccc(C(=O)Nc2cccc(-c3cnn(-c4c(C)cc(C(F)(C(F)(F)F)C(F)(F)F)cc4C(F)(F)F)c3)c2F)cc1F [Example 72] | – | 100% | – | 95% | 100% | – | 100%
29 | COc1cccc(C(=O)Nc2cccc(-c3cnn(-c4c(C)cc(C(F)(C(F)(F)F)C(F)(F)F)cc4C(F)(F)F)c3)c2F)c1 [Example 73] | 100% | 100% | – | 100% | 100% | – | 100%
30 | COc1cc(C(=O)Nc2cccc(-c3cnn(-c4c(C)cc(C(F)(C(F)(F)F)C(F)(F)F)cc4C(F)(F)F)c3)c2F)ccc1C#N [Example 74] | 100% | 100% | – | – | 100% | – | 100%
31 | Cc1cc(C(F)(C(F)(F)F)C(F)(F)F)cc(C(F)(F)F)c1-n1cc(-c2cccc(NC(=O)c3ccsc3)c2F)cn1 [Example 75] | – | 80% | – | 95% | – | – | 100%
32 | Cc1cc(C(F)(C(F)(F)F)C(F)(F)F)cc(C(F)(F)F)c1-n1cc(-c2cccc(NC(=O)c3cccs3)c2F)cn1 [Example 76] | 100% | 100% | – | 100% | 100% | – | 100%
